Reference: patent US20140286945A1, “ENZYME INHIBITOR FOR CANCER TREATMENT” (The Curators of the University of Missouri, priority 2011, published 2014)

How the values were obtained:
MCF-7 cells = assay: MCF-7 cell proliferation (MTT); type: cell-based; settings: for response of MCF-7 cells to treatment: at low doses
Protocol: Refer to FIG. 11, which compares MCF-7 cell proliferation data among the treatments of BIBB515, Tamoxifen, Anastraozole, and various combinations thereof. During the experiments, the MCF-7 cells were treated with charcoal-stripped serum prior to treatment and grown with treatment repeated every 72 hrs. The cells were grown for 6 days, on day 7 the cell proliferation was determined by adding MTT and read at 570 nm according to the manufactures instructions. […] Thus, inhibiting the cholesterol pathway can inhibit the estrogen induced cell proliferation in MCF-7 cells.

CD-54 = assay: Flow-cytometric analysis of CD-54 in Mec-2 cells; type: cell-based; settings: flow cytometry, Fludarabine 10 μM, compared to control (FIG. 2)
patient CLL cells = assay: Patient CLL cell viability; type: cell-based
Protocol: 1. Inhibition effect with BIBB515 alone and in combination with Fludarabine and Rituximab on patient cells. To assess the effect of treatment on cell viabilities, patient CLL cells were treated with BIBB515 alone and in combination with Fludarabine and Rituximab. Untreated CLL patient cell samples and samples of patients exposed to Fludarabine were used. The treatment was done 24 hrs after the cells plated in T25 flasks.

[1] = rat, hamster, squirrel monkey and minipig models; due to inhibition of LDL production; cited from earlier work
dog lymphoma cells = assay: Dog lymphoma cell viability; type: cell-based; settings: BIBB515 10 μM
Description: Spontaneously occurring lymphoma in the dog has many of the same histopathological, molecular, and clinical features as non-Hodgkin's lymphoma (NHL) in humans. Most of the lymphoma subtypes recognized in humans have histopathologically identical counterparts in the dog and recent investigations show similar molecular characteristics in the two species. Likewise, spontaneous lymphoma in the dog has a similar clinical presentation, response to chemotherapy, and clinical progression compared to NHL in human patients. […] A canine lymphoma cell line, OSW, was established from the thoracic effusion of a dog with relapsed peripheral T-cell lymphoma. […] See, e.g., U.S. Pat. No. 7,897,150 and Kisseberth, W. C., et al., “A novel canine lymphoma cell line: a translational and comparative model for lymphoma research,” Leuk Res, 2007 31(12): p. 1709-20.

CD-20 = assay: Flow-cytometric analysis of CD-20 in Mec-2 cells; type: cell-based; settings: flow cytometry, Fludarabine 10 μM, compared to control (FIG. 2)
Mec-2 cells [2] = assay: MTT assay of cell viability/proliferation in Mec-2 cells; type: cell-based; settings: for effect on cell proliferation, agents alone: 72 hours, BIBB515 at 10 μm (10^−5), Fludarabine 10 μM (FIG. 4)
Mec-2 cells [3] = assay: Membrane lipid content of Mec-2 cells by mass spectrometry; type: cell-based; settings: 24 hrs, 10^−5 M; for some diacyl phosphatidylcholine species: versus DMSO controls; for lysophosphatidylcholines (LPC): versus DMSO controls (FIG. 19); for levels of phosphatidylcholines (PC): versus DMSO controls (FIG. 20); for levels of glycosphingolipids/dihydroglycosphingolipids: versus DMSO controls (FIG. 21); for levels of ether-linked phosphatidylcholines: versus DMSO controls (FIG. 22)
Protocol: Lipids were extracted by the following chloroform and methanol method. To 0.8 parts cells in aqueous solution, 1 part chloroform and 2 parts methanol was added and shaken well, then another 1 part chloroform and 1 part water added and shaken. The mixture was then centrifuged at low speeds for 5-10 min. and the lower layer removed. One part chloroform was added 3 times, shaken and centrifuged to again remove the lower layer. The layers were then combined, washed with KCl and then water. The extracted lipids from Mec-2 cells were vacuum dried after 24 hrs. of treatment with BIBB(10^−5 M) and YM(10^−5 M). Controls were treated with DMSO.
Samples were analyzed by mass spectrometry by the Kansas Lipidomics Research Center (KLRC) and identified and quantified by comparison against standard molecular weights of lipids. Each sample was loaded, vaporized, and ionized by electron beam; ions electromagnetically separated according to mass-to-charge ratio (m/z) were detected, and the ion signal processed into mass spectra.
Compounds were identified based on m/z of the intact ion and the mass of one fragment formed in the mass spectrometer: typically, for polar lipids, a head group fragment; for sphingolipids, a fragment characteristic of the long-chain base or sugar(s); for neutral lipids and for specialized analyses, often an acyl fragment. Quantities were reported as normalized signal/(tissue metric nanomole/3 million cells) against internal standards added in known amounts, usually with an adjustment for variation in response with m/z. Thus, quantities reported as normalized signal/(tissue metric) for diacyl or monoacyl phospholipids can be considered to be equal to nmol/(tis sue metric).

Mec-2 cells [4] = assay: Confocal microscopic analysis of glycosphingolipid density in Mec-2 cells; type: cell-based; settings: confocal microscopy, relative to control, TAK-475 at 10 μM, data not shown
Protocol: Mec-2 cells were treated with BIBB515, YM-53601, or 10 μM of TAK-475 and imaged by confocal miscrscope. […] This would explain why rituximab is of limited or no efficacy in Mec-2 and Wac-3 cells, and provides a rationale for the efficacy of combination treatment with rituximab and a cholesterol biosynthetic pathway inhibitor.

Wac-3 cells = assay: MTT assay of cell viability in Wac-3 cells; type: cell-based
Mec-2 cells [5] = settings: 10 µM
Raji cells = assay: Raji (Burkitt lymphoma) cell viability at 72 hours; type: cell-based
Protocol: 1. Inhibition on cell viability of Raji after treatments with BIBB515 alone and in combination with Fludarabine. Burkitt lymphoma is a highly aggressive lymphoma, and Raji cells are sensitive to Fludarabine treatment at 10 μM concentration. […] Fludarabine was used at 5 μM concentration.
2. Inhibition on cell viability of Raji after treatments with Terbinafine alone and in combination with Fludarabine. […] The preferred cholesterol concentration range may also various between different cancer types.

[6] = test system: multiple myeloma cell line U226B1; assay: Multiple myeloma cell line proliferation; type: cell-based; settings: Ro-48-8071 alone (FIG. 12)
Mec-2 cells [7] = assay: Flow cytometry of glycosphingolipids in Mec-2 cells; type: cell-based; settings: data not shown
[8] = 10 μM YM-53601, 10 μg/mL alemtuzumab

CC(C)(C#N)c1cc(Cn2cncn2)cc(C(C)(C)C#N)c1 [Anastrazole]
response of MCF-7 cells to treatment (MCF-7 cells): resistant

O=C(c1ccc(Cl)cc1)N1CCC(=Cc2ccc(C3=NCCO3)cc2)CC1 [BIBB515]
sensitization of MCF-7 cells (MCF-7 cells; FIG. 11): sensitized | proliferation of cells with estrogen (MCF-7 cells; MCF-7, charcoal-stripped serum, 6 days, MTT on day 7 (FIG. 11)): blocked | cell death in MCF-7 cells (MCF-7 cells; relatively low doses of Tamoxifen or Anastrazole): induces cell death | CD-54 cell surface expression (CD-54): maintained at the similar level | effect on cell viability (patient CLL cells; BIBB515 study): reducing the cell viability moderately | lipid lowering [1]: lower lipids | cell viability (dog lymphoma cells; Chlorambucil 100 nM (FIG. 16)): reducing the cell viability somewhat | cell viability (dog lymphoma cells; lomustine 100 nM (FIG. 15)): reducing the cell viability somewhat | CD-20 cell surface expression (CD-20): increased CD-20 cell surface expression | effect on cell proliferation, agents alone (Mec-2 cells [2]): able to inhibit cell proliferation | some diacyl phosphatidylcholine species (Mec-2 cells [3]): reduce | lysophosphatidylcholines (LPC) (Mec-2 cells [3]): reduce | levels of phosphatidylcholines (PC) (Mec-2 cells [3]): increase | levels of glycosphingolipids/dihydroglycosphingolipids (Mec-2 cells [3]): increase | levels of ether-linked phosphatidylcholines (Mec-2 cells [3]): increase | glycosphingolipids and thus lipid raft density (Mec-2 cells [4]): increase | sensitization of cells to Rituximab treatment (Wac-3 cells; BIBB515 study (FIG. 8)): sensitizes the Wac-3 cells to Rituximab treatment | viability (Mec-2 cells [5]): 65% | Raji cell proliferation (Raji cells; BIBB515 various concentrations, even at 10^−7, Fludarabine 5 μM (FIG. 9)): reduced

Nc1nc(F)nc2c1ncn2[C@@H]1O[C@H](CO)[C@@H](O)[C@@H]1O [Fludarabine]
viability (Mec-2 cells [5]): 82%

C=CCN(C)CCCCCCOc1ccc(C(=O)c2ccc(Br)cc2)c(F)c1 [Ro-48-8071]
cell viability (patient CLL cells; Ro-48-8071 study, control over 80%): about 65% | lipid lowering [1]: lower lipids | concentration giving the highest inhibition (dose dependent sensitivity) (Mec-2 cells [2]; Ro-48-8071 alone (FIG. 6)): 30 µM | effect on cell proliferation (Mec-2 cells [2]; Ro-48-8071 study, Fludarabine 10 μM (FIG. 6)): inhibits Mec-2 cell proliferation significantly | cell proliferation [6]: provides reduction on cell proliferation

CC/C(=C(\c1ccccc1)c1ccc(OCCN(C)C)cc1)c1ccccc1 [Tamoxifen]
response of MCF-7 cells to treatment (MCF-7 cells): resistant

CN(C/C=C/C#CC(C)(C)C)Cc1cccc2ccccc12 [Terbinafine, terbinafine]
cell proliferation (MTT assay) (Mec-2 cells [2]; Terbinafine 60 μM, controls 0.5 (FIG. 5)): 0.16 | Raji cell proliferation (Raji cells; Terbinafine study (FIG. 10)): reduced

F/C(COc1ccc2c(c1)[nH]c1ccccc12)=C1/CN2CCC1CC2 [YM-53601]
glycosphingolipids / lipid raft density by flow cytometry (Mec-2 cells [7]): increase was confirmed | effect on cell proliferation (Mec-2 cells [2]; YM-53601 100 nM (FIG. 7)): reduces Mec-2 cell proliferation moderately | some diacyl phosphatidylcholine species (Mec-2 cells [3]): reduce | lysophosphatidylcholines (LPC) (Mec-2 cells [3]): reduce | levels of phosphatidylcholines (PC) (Mec-2 cells [3]): increase | levels of glycosphingolipids/dihydroglycosphingolipids (Mec-2 cells [3]): increase | levels of ether-linked phosphatidylcholines (Mec-2 cells [3]): increase | glycosphingolipids and thus lipid raft density (Mec-2 cells [4]): increase | effect on cellular proliferation (Wac-3 cells; [8]): effective at preventing cellular proliferation | growth of cell population (Wac-3 cells; 10 μM YM-53601, 10 μg/mL alemtuzumab, control population more than tripled): did not achieve even a doubling

Rituximab: an antiCD-20 monoclonal antibody that is in use in clinics
effect on cell proliferation, agents alone (Mec-2 cells [2]): resistant | effect on cellular proliferation (Wac-3 cells; 10 μM TAK-475, 5 μM Fludarabine, 10 μg/mL Rituximab (FIG. 14)): wholly ineffective

alemtuzumab: CD52-targeting monoclonal antibody
effect on cellular proliferation (Wac-3 cells; [8]): ineffective at the concentration tested
